The structures appear in SMILES notation.

Series [1] relates to morningglory (Ipomoea hederacea). As to the kind of experiment: Preemergence herbicidal activity. The following applies: Ipomoea, 504 h, Table 6 (headed Post-emergent; text: preemergence), after 3 weeks, read-out: % Control IPOHE; for pest or weed control at 560 ppm: rate 560 ppm. In kind it is in vivo. In a few lines:
(§1)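 Test compounds in acetone/DMSO were diluted in water with 0.1% Tween 155 and sprayed onto the soil surface of freshly seeded pots (loam/sand 70:30, pH about 8.1). Plants grew in a greenhouse at about 23-29° C day under a 15 h photoperiod. Injury was scored visually after 3 weeks versus untreated plants, 0-100%.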

Series [2] concerns velvetleaf (Abutilon theophrasti). As to the kind of experiment: Preemergence herbicidal activity. It counts as in vivo. As to conditions: Abutilon theophrasti, 504 h, Table 6 (headed Post-emergent; text: preemergence), after 3 weeks, read-out: % Control ABUTH; for pest or weed control at 560 ppm: rate 560 ppm. In a few lines:
as §1

For series [3], the system named is pigweed (Amaranthus retroflexus). Description: Preemergence herbicidal activity. As to conditions: Amaranthus retroflexus, 504 h, Table 6 (headed Post-emergent; text: preemergence), after 3 weeks, read-out: % Control AMARE; for pest or weed control at 560 ppm: rate 560 ppm. It counts as in vivo. In a few lines: as §1
Series [4] relates to velvetleaf (Abutillon theophrasti). As to the kind of experiment: Postemergence herbicidal activity. In kind it is in vivo. As to conditions: Table 4. In a few lines: (§2)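 Plants are raised from seed under greenhouse conditions until the first or second true leaf appears. They are then sprayed with test solutions at known concentrations, where 1 ppm corresponds to roughly 1 g/Ha. Two weeks later, injury is rated by eye from 0 to 100%.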

Series [5] has as its system cocklebur (Xanthium strumarium). As to the kind of experiment: Postemergence herbicidal activity. It counts as in vivo. As to conditions: for Post-emergent Evaluation - % control XANST: Table 4; for pest or weed control at 250 ppm / pest or weed control at 125 ppm: Xanthium strumarium, post-emergence, 336 h, Table 1, visual, after 2 weeks, read-out: Post-emergent % Control XANST. In a few lines: as §2

The subject of series [6] is wild buckwheat (Polygonum convolvulus). Description: Postemergence herbicidal activity. In kind it is in vivo. The following applies: Fallopia convolvulus, post-emergence, 336 h, Table 1, visual, after 2 weeks, read-out: Post-emergent % Control POLCO; for pest or weed control at 250 ppm: rate 250 ppm; for pest or weed control at 125 ppm: rate 125 ppm. In a few lines:
as §2

Series [7] deals with chickweed (Stellaria media). As to the kind of experiment: Postemergence herbicidal activity. In kind it is in vivo. As to conditions: Stellaria media, post-emergence, 336 h, Table 1, visual, after 2 weeks, read-out: Post-emergent % Control STEME; for pest or weed control at 250 ppm: rate 250 ppm; for pest or weed control at 125 ppm: rate 125 ppm. In a few lines: as §2
In series [8] the test system is pigweed (Amaranthus retroflexus). Description: Postemergence herbicidal activity. As to conditions: Table 4. It counts as in vivo. In a few lines:
as §2

The test system of a further series is corn (Zea mays). Description: Postemergence herbicidal activity, selectivity to corn. It counts as in vivo. As to conditions: Table 4, crop (corn). The protocol:
(§3) Seeds of the desired test plant species were planted in Grace-Sierra MetroMix® 306 planting mixture, which typically has a pH of 6.0 to 6.8 and an organic matter content of about 30 percent, in plastic pots with a surface area of 64 square centimeters. When required to ensure good germination and healthy plants, a fungicide treatment and/or other chemical or physical treatment was applied. The plants were grown for 7-21 days in a greenhouse with an approximate 15 hr photoperiod which was maintained at about 23-29° C. during the day and 22-28° C. during the night. Nutrients and water were added on a regular basis and supplemental lighting was provided with overhead metal halide 1000-Watt lamps as necessary. The plants were employed for testing when they reached the first or second true leaf stage.
(§4) A weighed amount, determined by the highest rate to be tested, of each test compound was placed in a 20 mL glass vial and was dissolved in 4 mL of a 97:3 v/v (volume/volume) mixture of acetone and dimethyl sulfoxide (DMSO) to obtain concentrated stock solutions. […] The concentrated stock solutions obtained were diluted with an aqueous mixture containing acetone, water, isopropyl alcohol, DMSO, Atplus 411F crop oil concentrate, and Triton X-155 surfactant in a 48.5:39:10:1.5:1.0:0.02 v/v ratio to obtain spray solutions of known concentration. The solutions containing the highest concentration to be tested were prepared by diluting 2 mL aliquots of the stock solution with 13 mL of the mixture and lower concentrations were prepared by serial dilution of the stock solution. […]
(§5) The treated plants and control plants were placed in a greenhouse as described above and watered by sub-irrigation to prevent wash-off of the test compounds. After 2 weeks the condition of the test plants as compared with that of the untreated plants was determined visually and scored on a scale of 0 to 100 percent where 0 corresponds to no injury and 100 corresponds to complete kill.

In series [9] the test system is barnyardgrass (Echinochloa crus-galli). Description: Postemergence herbicidal activity. As to conditions: Table 3; weeds in rice; rate 250 ppm. In kind it is in vivo. In a few lines:
as §2

The subject of series [10] is yellow nutsedge (Cyperus esculentus). Description: Postemergence herbicidal activity. In kind it is in vivo. The following applies: Table 3; weeds in rice; rate 250 ppm. In a few lines: as §2
The next series deals with rice (Oryza sativa). Description: Postemergence herbicidal activity, selectivity to rice. In kind it is in vivo. The following applies: Table 3; crop (rice); rate 250 ppm. The protocol:
as §3, §4, §5

Compound `Nc1c(Cl)c(C(=O)O)nc(Cl)c1Br` [Compound 20, 4-Amino-3,6-dichloro-5-bromopyridine-2-carboxylic acid] showed a melting point of 201 to 202 °C. Besides, in series [1], the pest or weed control at 560 ppm turned out to be 100%. For the same compound, the pest or weed control at 560 ppm in series [2] came to 100%. In series [3], the pest or weed control at 560 ppm amounted to 100%. Further, the “Post-emergent Evaluation - % control ABUTH” value in [4] (rate 250 ppm) amounted to 70%. For the same compound, in series [5] (rate 250 ppm), the “Post-emergent Evaluation - % control XANST” value is 85% and the pest or weed control at 250 ppm came to 85%. Moreover, the pest or weed control at 250 ppm in series [6] was found to be 50%. The pest or weed control at 250 ppm in series [7] is 90%. Further, the “Post-emergent Evaluation - % control AMARE” value in [8] (rate 250 ppm) turned out to be 90%. Besides, the “Post-emergent Evaluation - % control ZEAMX” value in the series with corn (Zea mays) (rate 250 ppm) is given as 10%.

The compound `CCNc1cc(Cl)nc(C(=O)O)c1Cl` [Compound 27, 4-N-ethylamino-3,6-dichloropyridine-2-carboxylic acid] had a melting point of 136 to 137 °C. Also, the pest or weed control at 560 ppm in series [1] came out at 100%. In addition, the pest or weed control at 560 ppm in [2] came out at 100%. The pest or weed control at 560 ppm in [3] came to 100%. Further, the pest or weed control at 125 ppm in series [5] (rate 125 ppm) was 85%. In series [6], the pest or weed control at 125 ppm worked out at 90%. The “post emergent evaluation - % control ECHCG” value in [9] is 70%. Also, the pest or weed control at 125 ppm in series [7] is 100%. Further, in [10], the “post emergent evaluation - % control CYPES” value is recorded as 50%. In addition, the “post emergent evaluation - % control ORYZA” value with rice (Oryza sativa) is 40%.

Turning to `CN(C)c1cc(Cl)nc(C(=O)O)c1Cl` [Compound 33, 4-N,N-dimethylamino-3,6-dichloropyridine-2-carboxylic acid], the melting point is 110 °C. The pest or weed control at 560 ppm in series [1] was determined as 100%. Also, the pest or weed control at 560 ppm in [2] was 98%. Besides, in series [3], the pest or weed control at 560 ppm turned out to be 100%. Also, the “Post-emergent Evaluation - % control ABUTH” value in series [4] (rate 125 ppm) amounted to 80%. For the same compound, the “Post-emergent Evaluation - % control XANST” value in series [5] (rate 125 ppm) turned out to be 100%. Moreover, the pest or weed control at 250 ppm in series [5] (rate 250 ppm) was found to be 100%. Besides, the pest or weed control at 250 ppm in series [6] is 100%. Also, in [7], the pest or weed control at 250 ppm is 100%. For the same compound, the “Post-emergent Evaluation - % control AMARE” value in [8] (rate 125 ppm) came to 50%. Also, the “Post-emergent Evaluation - % control ZEAMX” value with corn (Zea mays) (rate 125 ppm) turned out to be 20%.

With `Nc1c(F)c(C(=O)O)nc(Cl)c1Cl` [Compound 43, 4-Amino-5,6-dichloro-3-fluoropyridine-2-carboxylic acid], the melting point was 208 °C (dec.). For the same compound, in series [1] (rate 140 ppm), the pest or weed control at 140 ppm came out at 70%. Also, in [2] (rate 140 ppm), the pest or weed control at 140 ppm amounted to 80%. For the same compound, the pest or weed control at 140 ppm in series [3] (rate 140 ppm) was determined as 30%. The “Post-emergent Evaluation - % control ABUTH” value in series [4] (rate 250 ppm) turned out to be 70%. In series [5] (rate 250 ppm), the “Post-emergent Evaluation - % control XANST” value was 85%. In addition, the pest or weed control at 125 ppm in [5] (rate 125 ppm) turned out to be 90%. Also, in series [6], the pest or weed control at 125 ppm came out at 60%. In addition, in series [7], the pest or weed control at 125 ppm was found to be 85%. Also, the “Post-emergent Evaluation - % control AMARE” value in series [8] (rate 250 ppm) was 90%. Also, the “Post-emergent Evaluation - % control ZEAMX” value in the series on corn (Zea mays) (rate 250 ppm) turned out to be 0%.

As usually defined, the melting point is the temperature, or range, at which the solid turns liquid.

The values are drawn from US20010047099A1, “4-aminopicolinates and their use as herbicides” (priority 2000, published 2001).
